{"source": "patent US9546196B2", "about": "“Compositions and methods of treatment of cancers” (The University of Toledo, priority 2009, dated 2017)", "key": {"[1]": {"test_system": "Capan-2 pancreatic cancer cells", "experiment": "Capan-2 cell density with peptide", "type": "cell-based", "conditions": "increasing concentration; 3 or 5 days", "method": "FIG. 21B: Capan-2 pancreatic cancer cells were grown for 3 or 5 days in the presence of increasing concentration of Peptide A-8R [SEQ ID NO: 1] or vehicle and then cell density was measured.\nTo determine if Peptide A-8R [SEQ ID NO: 1] can be cytotoxic to other cancer cells, a pancreatic cancer cell line, Capan-2, was also tested."}, "[2]": {"test_system": "C81 xenograft tumors", "experiment": "C81 xenograft tumors in mice, intratumoral injection", "type": "in vivo", "method": "FIGS. 28A-C: Peptide A-8R [SEQ ID NO: 1] inhibits the growth of C81 prostate xenograft tumors. (A) C81 (hormone-independent LNCaP) xenograft tumors were grown in nude mice to a size of about 200 cubic mm and then treated every other day with five intratumoral injections of either Peptide A-8R [SEQ ID NO: 1] ([…] of animal) or vehicle (DMSO) for seven days, after which the tumors were left untreated and allowed to grow for an additional 3 weeks before the tumors were excised. Each point represents the average tumor size of three animals plus or minus the standard deviations. The arrow represents the last treatment of Peptide A-8R [SEQ ID NO: 1] or vehicle. There is a statistical significance (P<0.0004) of Peptide A activity, relative to vehicle, for each treatment day. […] Bar graphs represent averages of each set of three tumors plus standard deviations. Asterisks indicate statistical significance (P<0.02). (C) Image showing the strong anti-tumor effect of Peptide A-8R [SEQ ID NO: 1], as compared to vehicle control, in one animal.\nThis experiment was then repeated using hormone-refractory C81 cells. 2×10^6 C81 cells in 50 μL of growth medium was mixed with 50 μL Matrigel (BD Biosciences) and injected into both flanks of 4-6-week old SCID male mice. When tumor sizes reached 200 mm^3, 50 μL of Peptide A-8R (40 mg Peptide A-8R/kg of animal) [“A-8R” disclosed as SEQ ID NO: 1] or vehicle (DMSO) was directly injected into the tumors every other day. Injections were stopped after 5 times and tumors were measured every 3 days. Mice were euthanized after 3 weeks and tumors were excised. All procedures were approved by the University of Toledo, Division of Lab Animal Recourses (DLAR). Protein extracts were prepared by boiling the tumor tissue in 3×SDS buffer, and evaluated by SDS-PAGE gel. The procedure was carried out in strict accordance with the recommendations in the Guide for the Care and Use of Laboratory Animals of the National Institutes of Health. […] During the experiments, all animals were monitored daily for morbidity and all efforts were made to minimize suffering. […]"}, "[3]": {"test_system": "LNCaP cells", "type": "cell-based", "parameters": "cell death: dose or concentration left out as unconfirmed", "method": "FIG. 12B: LNCaP cells were grown without androgen for 2 or 4 days in the presence of increasing concentration of Peptide A-8R [SEQ ID NO: 1] (upper left), Peptide B-8R [SEQ ID NO: 2] (upper right), Peptide C-8R [SEQ ID NO: 3] (lower left), or Peptide D-8R [SEQ ID NO: 4] (lower right). The MTT reagent was used to measure cell density.\nFIG. 13A: LNCaP cells were grown with (Right) or without (Left) 1 nM androgen ([…]) for 3 or 6 days in the presence of increasing concentration of Peptide A-8R [SEQ ID NO: 1] or vehicle (70% DMSO). The MTT reagent was used to measure cell density.\nFIG. 13B: LNCaP cells were grown with (Right) or without (Left) 1 nM androgen (R1881) for 3 or 6 days in the presence of increasing concentration of Peptide C-8R [SEQ ID NO: 3] or vehicle and then cell density was measured.\nFIG. 14A: LNCaP cells were grown with (Right) or without (Left) 1 nM R1881 for 3 or 6 days in the presence of increasing concentration of Peptide A or vehicle and then cell density was measured.\nFIG. 14B: LNCaP cells were grown with (Right) or without (Left) 1 nM R1881 for 3 or 6 days in the presence of increasing concentration of Peptide A-8R [SEQ ID NO: 1] or vehicle and then cell density was measured.\nFIG. 15A: LNCaP cells were grown for 1-8 hrs in the presence of 10 μM Peptide A-8R [SEQ ID NO: 1] or vehicle and then cell density was measured.\nFIG. 19C: LNCaP cells were grown with for 12 or 48 hrs in the presence of increasing concentration of Peptide A-8R [SEQ ID NO: 1] (Left) or PeptideA-8R-Biotin [SEQ ID NO: 1] (Right) and then cell density was measured.\nEach peptide contained 8 arginines at the C-terminus, a sequence which is known to mediate plasma membrane translocation and cellular internalization.\n(§1) To measure how rapid the cytotoxic effect of Peptide A-8R [SEQ ID NO: 1] occurs, LNCaP cells were treated with 10 μM peptide and incubated for 1-8 hrs. […] Using the same conditions, C81 cells were used to study the peptide effect on hormone-refractory prostate cancer cells."}, "[4]": {"test_system": "CWR22-Rv1 (androgen-refractory) cells", "experiment": "CWR22-Rv1 cell density with peptide", "type": "cell-based", "conditions": "10 μM peptide; 1-8 hrs", "method": "FIG. 15C: CWR22-Rv1 (androgen-refractory) cells were grown for 1-8 hrs in the presence of 10 μM Peptide A-8R [SEQ ID NO: 1] or vehicle and then cell density was measured.\nas §1"}, "[5]": {"test_system": "Caspase 3/7", "experiment": "Caspase 3/7 activity in LNCaP cells", "type": "cell-based", "conditions": "10 mM Peptide A-8R", "method": "FIG. 18A: LNCaP cells were grown for 1-24 hrs in the presence of vehicle, […] Peptide A-8R [SEQ ID NO: 1], or […] Etoposide and then measured for Caspase 3/7 activity.\nTo determine if the cytotoxicity of Peptide A-8R [SEQ ID NO: 1] is through apoptosis, LNCaP cells were monitored for Caspase 3/7 activity. […] Thus, Peptide A-8R [SEQ ID NO: 1] was able to induce Caspase 3/7 activity much faster than the well-studied apoptosis-inducing drug Etoposide. To confirm that the Peptide was killing cells via apoptosis, the inventors used the pan-caspase inhibitor Z-VAD-FMK."}, "[6]": {"test_system": "ACHN human kidney cancer cells", "experiment": "ACHN cell density with peptide", "type": "cell-based", "conditions": "even at 100 μM; 2 or 4 days; no endogenous sGCα1", "method": "FIG. 17C: ACHN human kidney cancer cells were grown for 2 or 4 days in the presence of increasing concentration of Peptide A-8R [SEQ ID NO: 1] or vehicle and then cell density was measured."}}, "note": "Entries after “also recorded” stand apart in the source; their conditions may differ."}
{"substance": "Ac-TFCKAFPFHIIRRRRRRRR-OH [Peptide A-8R]", "values": [{"measurement": "cytotoxicity to Capan-2 cells", "setting": "[1]", "value": "strongly cytotoxic"}, {"measurement": "tumor growth during treatment", "setting": "[2]; 40 mg/kg intratumoral every other day, five injections", "value": "stopped tumor growth and actually caused some tumor regression"}, {"measurement": "tumor size versus vehicle-treated tumor in the same mouse", "setting": "[2]; one mouse having two tumors", "value": "markedly smaller"}, {"measurement": "tumor growth after peptide treatment was stopped", "setting": "[2]; three weeks after treatment was stopped", "value": "did not grow at all"}, {"measurement": "cell number, time course", "setting": "[3]; LNCaP, 10 μM peptide, 1-8 hrs", "value": "steep decline in cell number with one hour"}, {"measurement": "cell death", "setting": "[3]; LNCaP, peptide treatment, by day 6", "value": 100, "unit": "%"}, {"measurement": "effect on LNCaP cell growth / cytotoxicity (in words)", "setting": "[3]; increasing concentration of peptide, days, with or without 1 nM R1881", "value": "highly cytotoxic; also recorded: induced LNCaP cell death in both the absence and presence of androgens"}, {"measurement": "killing of CWR22-Rv1 cells", "setting": "[4]", "value": "able to kill"}, {"measurement": "increase in caspase activity", "setting": "[5]; after 8 hrs", "value": "~4", "unit": "fold"}, {"measurement": "caspase activity", "setting": "[5]; after 24 hrs", "value": "diminished to Vehicle levels"}, {"measurement": "increase in caspase activity", "setting": "[5]; by 1 hour", "value": 2, "unit": "fold"}, {"measurement": "effect on ACHN cells", "setting": "[6]", "value": "little to no effect"}]}
